For assay [1], the system named is splenocytes (IFNγ secretion). Briefly: ELISPOT-IFNγ on splenocytes of β/A2/DR3 mice vaccinated with IL13RA2 peptides (Example 6). Format: in vivo, mouse. The following applies: for Percentage of ConA-induced response (mean+/-SEM), ELISPOT-IFNγ: β/A2/DR3 mice vaccinated s.c. d0 and d14 with labelled peptide (100 μg) + HHD-DR3 helper + IFA, d21. The text has this: Briefly, 14 β/A2/DR3 mice were assigned randomly (based on mouse sex and age) to two experimental groups, each immunized with a specific vaccination peptide (vacc-pAg) combined to a common helper peptide (h-pAg) (as outlined in Table 7 below). The vacc-pAg were compared in couples (group 1 vs. group 2). Thereby, both native and optimized versions of a single peptide were compared in each wave.
(§1) The animals were immunized on day 0 (d0) with a prime injection, and on d14 with a boost injection. Each mouse was injected s.c. at tail base with 100 μL of an oil-based emulsion that contained: • 100 μg of vacc-pAg (25 μL of 4 mg/mL stock per mouse); • 150 μg of h-pAg (15 μL of 10 mg/mL stock per mouse); • 10 μL of PBS to reach a total volume of 50 μL (per mouse); • Incomplete Freund's Adjuvant (IFA) added at 1:1 (v:v) ratio (50 μL per mouse).
Seven days after the boost injection (i.e. on d21), the animals were euthanized and the spleen was harvested. Splenocytes were prepared by mechanical disruption of the organ followed by 70 μm-filtering and Ficoll density gradient purification.
The splenocytes were immediately used in an ELISPOT-IFNγ assay (Table 8). Experimental conditions were repeated in quadruplets, using 2*10^5 total splenocytes per well, and were cultured in presence of vacc-pAg (10 μM), Concanavalin A (ConA, 2.5 μg/mL) or medium-only to assess for their capacity to secrete IFNγ. The commercial ELISPOT-IFNγ kit (Diaclone Kit Mujrine IFNγ ELISpot) was used following the manufacturer's instructions, and the assay was performed after about 16 h of incubation.
Spots were counted on a Grand ImmunoSpot® S6 Ultimate UV Image Analyzer interfaced to the ImmunoSpot 5.4 software (CTL-Europe). Data plotting and statistical analysis were performed with the Prism-5 software (GraphPad Software Inc.).
The data were then normalized as a number of specific spots (the average counts obtained in the ‘medium only’ condition being subtracted) per 10^6 total T cells.
The individual average values (obtained from the quadruplicates) were next used to plot the group average values (see FIG. 3A). As the functional capacity of T cells might vary from individual to individual, the data were also expressed as the percentage of the ConA response per individual (see FIG. 3B).

Assay [2] deals with U87 cells. Briefly: In vitro cytotoxicity of CD3+ T cells from immunized mice against U87-MG cells (Example 7). The class given is cell-based, human. The following applies: CD3+ T cells of HHD/DR3 mice immunized with labelled peptide, 72 hours co-culture with U87-MG, annexin V/DAPI. As to the method: Briefly, […] T cells from mice immunized with IL13RA2-H or […] were used. These cells were obtained after sorting of splenocyte from immunized mice and were placed on top of U87 cells (tumor cells expressing IL13RA2).
In more detail, CD3^+ T cells were purified from splenocytes of HHD mice immunized with IL13RA2-H (WLPFGFILI, SEQ ID NO: 1) or IL13RA2-B (FLPFGFILV, SEQ ID NO: 18). To this end, B6 β2m^ko HHD/DR3 mice were injected s.c. at tail base with 100 μL of an oil-based emulsion containing vaccination peptide plus helper peptide plus CFA (complete Freund's adjuvant), at day 0 and day 14 as described in Example 6. On d21, i.e. seven days after the boost injection, the animals were euthanized and the spleen was harvested. Splenocytes were prepared by mechanical disruption of the organ. CD3+ purification was performed using the mouse total T cells isolation kit from Miltenyi biotec using the recommended procedure. Efficient purification of cells and viability was validated by cytometry using appropriate marker for viability, CD8, CD4, CD3, and CD45. […]
72 hours after co-culture of U87-MG cells and CD3+ T cells, all cells from the wells were harvested and specific U87-MG cell death was evaluated after immunostaining of CD45 negative cells with DAPI and fluorescent annexin V followed by cytometry analysis.

The test system of assay [3] is splenocytes (IFNγ secretion). Nature of the assay: ELISPOT-IFNγ on splenocytes of BALB/c and C57BL/6 mice vaccinated with murine microbiota peptides (Example 16). The class given is in vivo, mouse. The following applies: for T cell responses in the ELISPOT-IFNγ assay (in words): C57BL/6 mice (H2 Db B2) or BALB/c mice (H2 Ld B5), vaccination + OVA 323-339 + IFA, ex vivo stimulation with bacterial peptide; for T cell responses in the ELISPOT-IFNγ assay against the murine reference epitopes (in words): ex vivo stimulation with H2 Db M2 (C57BL/6) or H2 Ld M5 (BALB/c). As to the method:
Briefly, BALB/c mice and C57BL/6 mice were assigned randomly to two experimental groups for each mouse strain, each group immunized with a specific vaccination peptide (vacc-pAg) combined to a common helper peptide (OVA 323-339 peptide; sequence: ISQAVHAAHAEINEAGR; SEQ ID NO: 164) and Incomplete Freund's Adjuvant (IFA) as shown in Table 23.
as §1
Seven days after the boost injection (i.e. on d21), the animals were euthanized and the spleen was harvested. Splenocytes were prepared by mechanical disruption of the organ followed by 70 μm-filtering and Ficoll density gradient purification. Spleen weight, splenocyte number and viability were immediately assessed (Table 24).
The splenocytes were used in an ELISPOT-IFNγ assay (Table X). Experimental conditions were repeated in quadruplets, using 2*10^5 total splenocytes per well, and were cultured in presence of vacc-pAg (10 μM), mice peptide homolog, positive control (1 ng/ml of Phorbol 12-myristate 13-acetate (PMA) and 500 ng/ml of Ionomycin) or medium-only to assess for their capacity to secrete IFNγ.
The commercial ELISPOT-IFNγ kit (Diaclone Kit Mujrine IFNγ ELISpot) was used following the manufacturer's instructions, and the assay was performed after about 16 h of incubation.
Spots were counted on a Grand ImmunoSpor S6 Ultimate UV Image Analyzer interfaced to the ImmunoSpot 5.4 software (CTL-Europe). Data plotting and statistical analysis were performed with the Prism-5 software (GraphPad Software Inc.).

The target in assay [4] is T1, HLA-A*0201 (Homo sapiens, UniProt P04439, D140Y/D185E/D98H/E176V/E277Q/G131W/G231S/I119V/I121R/I166T/I218V/L300P/L318F/N151K/N90K/P208A/P217A/Q86G/Q94H/R138H/R169H/T345S).
T1 construct: human tumoral cell T2 which expresses the HLA-A*0201 molecule; endogenous in cells; host or cells: T2 cells (human, TAP1/2 negative)
Briefly: In vitro affinity of peptides to HLA-A*0201 on T2 cell line (FACS, anti-HLA-A2 labeling). The class given is cell-based. The following applies: T2 cells; for Mean fluorescence intensity: 16 hours. The text has this: A method for in vitro testing is well-known to the skilled person. For example, the skilled person may use the experimental protocol as validated for peptides presented by HLA-A*0201 in Tourdot et al., A general strategy to enhance immunogenicity of low-affinity HLA-A2.1-associated peptides: implication in the identification of cryptic tumor epitopes. Eur J Immunol. 2000 December; 30(12):3411-21. In this context, a reference peptide, such as HIV pol 589-597, may be additionally used in the test. This enables calculation of the in vitro affinity relative to the binding observed with the reference peptide, e.g. by the following equation:
Relative affinity=concentration of each peptide inducing 20% of expression of HLA-A*0201/concentration of the reference peptide inducing 20% of expression of HLA-A*0201
(where 100% is the level of HLA-A*0201 expression detected with the reference peptide, e.g. HIV pol 589-597, for example used at a 100 μM concentration).
The experimental protocol is similar to the one that was validated for peptides presented by the HLA-A*0201 (Tourdot et al., A general strategy to enhance immunogenicity of low-affinity HLA-A2.1-associated peptides: implication in the identification of cryptic tumor epitopes. Eur J Immunol. 2000 December; 30(12):3411-21). Affinity measurement of the peptides is achieved with the human tumoral cell T2 which expresses the HLA-A*0201 molecule, but which is TAP1/2 negative and incapable of presenting endogenous peptides.
T2 cells (2.10^5 cells per well) were incubated with decreasing concentrations of peptides from 100 μM to 0.1 μM in a AIMV medium supplemented with 100 ng/μl of human β2m at 37° C. for 16 hours. Cells were then washed two times and marked with the anti-HLA-A2 antibody coupled to PE (clone BB7.2, BD Pharmagen).
The analysis was performed by FACS (Guava Easy Cyte). For each peptide concentration, the geometric mean of the labeling associated with the peptide of interest was subtracted from background noise and reported as a percentage of the geometric mean of the […] labeling obtained for the reference peptide HIV pol 589-597 at a concentration of 100 μM. The relative affinity is then determined as follows:
relative affinity=concentration of each peptide inducing 20% of expression of HLA-A*0201/concentration of the reference peptide inducing 20% of expression of HLA-A*0201.
The experimental protocol, materials and methods correspond to those outlined in Example 4, with the only difference that the above mentioned antigenic peptides were used.
T2 cells (2.10^5 cells per well) were incubated with decreasing concentrations of peptides from 100 μM to 0.1 μM in a AIMV medium supplemented with 100 ng/μl of human β2 m at 37° C. for 16 hours. Cells were then washed two times and marked with the anti-HLA-A2 antibody coupled to PE (clone BB7.2, BD Pharmagen).

Assay [5] deals with T2, HLA-A*0201 molecule on human T2 cells (human).
T2 construct: MHC class I molecule on T2 cells; also called HLA.A2.01
Briefly: T2 cell HLA-A*0201 binding assay, flow cytometry. On the technique in general: Flow cytometry measures light scatter and fluorescence of single cells or particles in a stream.
Method: T2 cells (2.10⁵ cells per well) were incubated with decreasing concentrations of peptides from 100 μM to 0.1 μM in a AIMV medium supplemented with 100 ng/μl of human β2m at 37° C. for 16 hours.
The analysis was performed by FACS (Guava Easy Cyte). […] The relative affinity is then determined as follows:

Where [6] appears, read: ex vivo re-stimulation with IL13RA2-B pAg 10 μM.
The mark [7] stands for this setting: ex vivo re-stimulation with IL13RA2-H pAg 10 μM.

As to “FLPFGFILV (sequence variant) [SEQ ID NO: 18]”, the “Percentage of ConA-induced response (mean+/-SEM), ELISPOT-IFNγ” value came out at 56.3% in assay [1] (setting [6]) and 32.3% in assay [1] (setting [7]). Further, the “T cell responses in the ELISPOT-IFNγ assay (in words)” value in assay [1] (β/A2/DR3 mice, vaccination, compared to IL13RA2-H-vaccinated animals) is “induced improved T cell responses”. In assay [2], the “U87 cell lysis (in words)” value is listed as “U87 cell lysis was observed”.

Consider “GAMLVGAVL (Sequence variant) [H2 Db B2, bacterial peptide from microbiota of C57BL/6 mice, variant of Stra6 peptide]”, for which, in assay [3], the “T cell responses in the ELISPOT-IFNγ assay (in words)” value is recorded as “induced improved T cell responses” and the “T cell responses in the ELISPOT-IFNγ assay against the murine reference epitopes (in words)” value was “also induced improved T cell responses”.

As for “KPSVFLLTL (Sequence variant) [H2 Ld B5, bacterial peptide from microbiota of BALB/c mice, variant of Phtf1 peptide]”, in assay [3], the “T cell responses in the ELISPOT-IFNγ assay (in words)” value was “induced improved T cell responses” and the “T cell responses in the ELISPOT-IFNγ assay against the murine reference epitopes (in words)” value is “also induced improved T cell responses”.

Take “LMDLSTTPL (listed as Homo sapiens) [SEQ ID NO: 59, reference compound]”: in assay [4], the “Concentration inducing 20% of expression of the HLA-A*0201” value was determined as 12.6 µM. Besides, the “Binding to HLA-A*0201 (in words)” value in assay [4] (in vitro) is “bind”. In addition, the results for the Mean fluorescence intensity in assay [4] (peptide at 3 μM), in assay [4] (peptide at 25 μM) and in assay [4] (peptide at 100 μM) were 0.9, 65.4 and 77.6, respectively.

Turning to “WLPFGFILI (listed as Homo sapiens) [SEQ ID NO: 1, reference compound]”, the figures for the “Percentage of ConA-induced response (mean+/-SEM), ELISPOT-IFNγ” value in assay [1] (setting [6]) and in assay [1] (setting [7]) were 2.0% and 1.1%, respectively. Moreover, the “U87 cell lysis (in words)” value in assay [2] is on record as “not”.

B1: human FOXM1 reference epitope FOXM1-H2 (SEQ ID NO: 59, LMDLSTTPL) (peptide)
peptide: LMDLSTTPL
notes: 9-mer peptide derived from human FOXM1; also called FOXM1-H2 pAg
Regarding B1, the “concentration inducing 20% of expression of HLA-A*0201” value in assay [5] is 12.6 µM.

B2: bacterial peptide IL13RA2-B (SEQ ID NO: 18, FLPFGFILV) (peptide)
peptide: FLPFGFILV
notes: 9-mer synthetic peptide; also called IL13RA2-B pAg
Regarding B2, the “concentration inducing 20% of expression of HLA-A*0201” value in assay [5] worked out at 4.4 µM.

B3: human IL13RA2 reference epitope IL13RA2-H (SEQ ID NO: 1, WLPFGFILI) (peptide)
peptide: WLPFGFILI
notes: 9-mer peptide derived from human IL13RA2; also called IL13RA2-H pAg
Turning to B3, in assay [5], the “concentration inducing 20% of expression of HLA-A*0201” value stood at 100 µM.

Turning to LMDLSTTEV (also called FOXM1-B2 pAg) [bacterial peptide FOXM1-B2 (SEQ ID NO: 75, LMDLSTTEV)], the “concentration inducing 20% of expression of HLA-A*0201” value in assay [5] came out at 6.7 µM.

Source of the values: patent US20200256877A1, “Microbiota Sequence Variants Of Tumor-Related Antigenic Epitopes” (ENTEROME S.A., priority 2017, published 2020).
